Experimental findings from publication PMC12114619, “Nifuroxazide and 4-Hydroxybenzhydrazone Derivatives as New Antiparasitic (Trypanosoma cruzi and Leishmania mexicana) and Anti-Mycobacterium tuberculosis Agents” (Pharmaceutics, 2025) are described below.

Data set [1] has as its system L. mexicana MHOM/MX/2017/UABJO17FCQEPS promastigotes. The data set can be described thus: Leishmanicidal activity, L. mexicana promastigotes, FCQEPS isolate (MTT). Type of data set: cell-based, Leishmania mexicana. The note with it: Leishmania mexicana, 48 h, FCQEPS strain. The method, then:
(§1) For leishmanicidal assays, the reference strain (MNYC/BZ/62/M379) and the isolate (MHOM/MX/2017/UABJO17FCQEPS) of L. mexicana were used. Promastigotes were cultured in RPMI 1640 medium supplemented with 10% FBS, 100 U/mL penicillin-100 […] streptomycin, and glutamine (2 mM). 100 µL parasites (5 × 10^5/mL) were added in a 96-well plate, and 100 µL of appropriate concentrations (0.78 to 200 µM) of each sample dissolved in DMSO and incubated for 48 h at 26 °C. Wells containing promastigotes with DMSO 0.2% were used as a negative control, and the reference drug glucantime was included as the positive control. The 3-(4,5-Dimethylthiazol-2-yl)-2,5-diphenyltetrazolium bromide (MTT) was used to measure metabolic activity. The IC50 values were calculated with the probit statistical tool. All samples were evaluated in triplicate in three independent experiments.

For data set [2], the system named is L. mexicana MNYC/BZ/62/M379 promastigotes. The data set can be described thus: Leishmanicidal activity, L. mexicana promastigotes, M379 strain (MTT). The data set is classed as cell-based, Leishmania mexicana. The conditions noted are these: 48 h. As to the method: as §1
In data set [3] the test system is M. tuberculosis H37Rv (ATCC 27294). The data set can be described thus: Anti-Mycobacterium activity, microplate Alamar Blue Assay (MABA). The data set is classed as cell-based, Mycobacterium tuberculosis. The note with it: H37Rv strain, minimum concentration achieving 90% inhibition; for MIC: Mycobacterium tuberculosis. The method, then:
The reference strain H37Rv (ATCC 27294) of M. tuberculosis was utilized to assess anti-M. tuberculosis activity using the microplate Alamar Blue Assay (MABA), as previously reported. Samples underwent evaluation in triplicate independent experiments. Isoniazid, rifampicin, moxifloxacin, and linezolid were included as reference drugs, and the minimum drug concentration that achieved 90% inhibition was recorded as the minimum inhibitory concentration (MIC).
(The colour change of resazurin is a common sign of viable cells or microbes.)

In data set [4] the test system is T. cruzi NINOA (MHOM/MX/1994/NINOA) strain epimastigotes. The data set can be described thus: Trypanocidal activity, T. cruzi epimastigotes, NINOA strain (resazurin). Type of data set: cell-based, Trypanosoma cruzi. The note with it: 48 h.
A short description of data set [5]: Cytotoxicity on macrophages (MTT). The data set is classed as cell-based, mouse. The conditions noted are these: mouse, Cytotoxicity (CC50) Macrophages J774.2.
Experimental: Cytotoxicity was assessed on J774.2 mouse macrophage cells (ATCC® TIB-67, ATCC, Manassas, VA, USA). Cells were cultured in RPMI medium supplemented with 10% SFB, 100 U µg/mL penicillin-100 mg/mL streptomycin, and glutamine (2 mM) at 37 °C and in a 5% CO2 atmosphere. A known concentration of cells (1 × 10^6/mL) was incubated with the compounds at different concentrations (0.78 to 200 µM) for 48 h at 37 °C in a CO2 atmosphere (5%). Wells containing cells treated with 0.2% DMSO were used as a negative control. MTT was employed to evaluate the metabolic activity. Next, the cell viability was calculated (%), and the cytotoxic concentration (CC50) was determined with probit analysis. All samples were evaluated in triplicate in three independent experiments.
Data set [6] has as its system T. cruzi strain A1 epimastigotes. The data set can be described thus: Trypanocidal activity, T. cruzi epimastigotes, A1 strain (resazurin). Type of data set: cell-based, Trypanosoma cruzi. The note with it: 48 h.

≈ marks a conversion by molar mass, not a printed value.

With `O=C(N/N=C/c1ccc(F)cc1)c1ccc(O)cc1` [Nfz-15], the IC50 in data set [1] was 102 ± 2.7 µM; in data set [2], 35.1 ± 4.7 µM; in data set [2] (Leishmania mexicana), ~30 µM; in data set [4] (Trypanosoma cruzi), > 100 µM; in data set [6], 32.6 ± 2.8 µM; in data set [6] (Trypanosoma cruzi) it was < 50 µM. Moreover, the MIC in data set [3] was > 100 µg/mL. For the same compound, the “IC50 T. cruzi NINOA” value in data set [4] is listed as “loss of trypanocidal activity”. Further, the CC50 at 48 h in data set [5] amounted to 74 ± 3.4 µM.

Take `O=C(N/N=C/c1ccc(Cl)cc1)c1ccc(O)cc1` [Nfz-16]: the IC50 in data set [1] was 78.1 ± 3.6 µM; in data set [2], 67.5 ± 4 µM; in data set [2] (Leishmania mexicana) it was > 60 µM; in data set [4] (Trypanosoma cruzi), > 100 µM; in data set [6], 40.2 ± 2.7 µM; in data set [6] (Trypanosoma cruzi), < 50 µM. Besides, in data set [3], the “MABA MIC” value is listed as 46.4 µg/mL. Also, the minimum inhibitory concentration (MIC) in data set [3] is < 50 µg/mL. In addition, in data set [4], the “IC50 T. cruzi NINOA” value is on record as “loss of trypanocidal activity”. This compound came in with a cytotoxic concentration (CC50) at 48 h in data set [5] of 83.2 ± 3.2 µM.

Consider `O=C(N/N=C/c1ccc(Br)cc1)c1ccc(O)cc1` [Nfz-17], for which the IC50 was 52.1 ± 4.8 µM in data set [1]; 62 ± 2.5 µM in data set [2]; > 60 µM in data set [2] (Leishmania mexicana); > 100 µM in data set [4] (Trypanosoma cruzi); 33.6 ± 3.9 µM in data set [6]; < 50 µM in data set [6] (Trypanosoma cruzi). For the same compound, the “MABA MIC” value in data set [3] came out at 43.6 µg/mL. For the same compound, the MIC in data set [3] was < 50 µg/mL. For the same compound, the “IC50 T. cruzi NINOA” value in data set [4] is reported as “loss of trypanocidal activity”. Besides, the 50% cytotoxic concentration (CC50) at 48 h in data set [5] is > 100 µM.

In the case of `O=C(N/N=C/c1ccccc1[N+](=O)[O-])c1ccc(O)cc1` [Nfz-19], the IC50 was > 200 µM in data set [1]; 146.7 ± 0.7 µM in data set [2]; > 100 µM in data set [2] (Leishmania mexicana); 36.5 ± 2.2 µM in data set [4]; 36.4 µM in data set [4] (Trypanosoma cruzi); 42.5 ± 6.7 µM in data set [6]. In data set [6] (Trypanosoma cruzi), the IC50 came out at 42.4 µM. The minimal inhibitory concentration (MIC) in data set [3] is > 100 µg/mL. In addition, in data set [5], the CC50 at 48 h is > 100 µM.

For the compound `O=C(N/N=C/c1ccc2ccccc2c1)c1ccc(O)cc1` [Nfz-20], the IC50 in data set [1] was > 200 µM; in data set [2], 28.4 ± 2.8 µM; in data set [2] (Leishmania mexicana), < 30 µM; in data set [4] (Trypanosoma cruzi), > 100 µM; in data set [6], 24.5 ± 2 µM; in data set [6] (Trypanosoma cruzi), 24.4 µM. Further, the MIC in data set [3] is > 100 µg/mL. For the same compound, the “IC50 T. cruzi NINOA” value in data set [4] was “loss of the activity”. The same compound came in with a CC50 at 48 h in data set [5] of 88.3 ± 3.9 µM.

On to `O=C(N/N=C/c1ccc2c(c1)OCCO2)c1ccc(O)cc1` [Nfz-21], for which the IC50 was > 200 µM in data set [1], 71.5 ± 4.9 µM in data set [2] (Leishmania mexicana), > 100 µM in data set [4] (Trypanosoma cruzi) and 49 ± 2.1 µM in data set [6] (Trypanosoma cruzi). This compound also showed a minimal inhibitory concentration (MIC) in data set [3] of 68.7 µg/mL (≈ 230 µM). Besides, in data set [4], the “IC50 T. cruzi NINOA” value is “loss of the activity”. Further, the CC50 at 48 h in data set [5] was > 100 µM.

On to `O=C(N/N=C/c1ccc(-c2ccccc2)cc1)c1ccc(O)cc1` [Nfz-22], for which the IC50 in data set [1] is 133 ± 1.4 µM; in data set [2] (Leishmania mexicana) it was > 200 µM; in data set [4], 6.87 ± 1.2 µM; in data set [4] (Trypanosoma cruzi) it was 6.8 µM; in data set [6] (Trypanosoma cruzi) it was > 100 µM. For the same compound, the MIC in data set [3] was > 100 µg/mL. Moreover, half-maximal cytotoxicity in data set [5] (CC50 at 48 h) was put at 43.5 ± 2.5 µM.

As for `O=C(N/N=C/c1cc2c(cc1[N+](=O)[O-])OCO2)c1ccc(O)cc1` [Nfz-23], the IC50 in data set [1] is > 200 µM; in data set [2], 16 ± 2 µM; in data set [2] (Leishmania mexicana), < 20 µM; in data set [4] (Trypanosoma cruzi) it was > 100 µM; in data set [6], 13.5 ± 3.4 µM; in data set [6] (Trypanosoma cruzi) it was 13.5 µM. In data set [3], the MIC was > 100 µg/mL. Besides, the “IC50 T. cruzi NINOA” value in data set [4] is given as “loss of the activity”. In data set [5], this compound returned a half-maximal cytotoxic concentration (CC50) at 48 h of 68.9 ± 6.6 µM.

As to `COC(=O)c1ccc(/C=N/NC(=O)c2ccc(O)cc2)cc1` [Nfz-25], the IC50 was > 200 µM in data set [1], 32.5 ± 6.1 µM in data set [2] (Leishmania mexicana), > 100 µM in data set [4] (Trypanosoma cruzi) and > 100 µM in data set [6] (Trypanosoma cruzi). Besides, in data set [3], the “MABA MIC” value was 45.9 µg/mL. Besides, the MIC in data set [3] was < 50 µg/mL. For the same compound, in data set [4], the “IC50 T. cruzi NINOA” value is given as “no activity”. Also, in data set [5], the CC50 at 48 h is > 100 µM. Moreover, the “IC50 T. cruzi A1” value in data set [6] was “inactive”.

What is called IC50 is the concentration needed to halve the response being measured. For orientation: MIC means the lowest concentration that inhibits growth of the organism. A high value points to a less susceptible organism. As usually defined, the CC50 is the concentration giving 50% cytotoxicity. Read a low CC50 as harm at low concentration.
